For the assay, the system named is nuclear export of the PLZF protein. Kind of assay: Inhibitory effect against the nuclear export of the PLZF protein by processing (CFP-PLZF in nucleus, TPA treatment). Conditions: HT1080/HB-EGF transfected with CFP-PLZF; 100 nM TPA 60 min in copresence of LMB 10 ng/ml; FIG. 7. The format is cell-based, Human. As for the experimental part:
Each transfectant containing CFP-PLZF was cultured for 24 hours, and then 100 nM TPA was added thereto for treatment for 60 min. The number (N) of the cells expressing CFP-PLZF in the nucleus and the number (C) of the cells in which CFP-PLZF has leaked into the cytoplasm are counted under observation with a fluorescent microscope before and after the TPA treatment, and the ratio of the number (N) of the cells expressing CFP-PLZF in the nucleus to the total number (N+C) of the cells expressing CFP-PLZF is calculated and thus obtained (N/(N+C)×100 (%)). The wild-type HT1080 cells (the above described 1)) were used as the control for comparison.
HT1080/HB-EGF to which CFP-PLZF had been transfected (see Test Example 3) was cultured for 24 hours, and then treated with 100 nM TPA in the copresence of LMB (10 ng/ml) for 60 min. The number of the cells expressing CFP-PLZF in the nucleus was measured with a microscope before and after the TPA treatment and the ratio was calculated.
As the control, the ratio of the number of the cells expressing CFP-PLZF before and after the TPA treatment when the TPA treatment was performed without adding LMB was obtained, and compared with the ratio when LMB was added. Thus, the compound LMB to be tested was evaluated. • 3. Test Results

In the case of `CCC(=C/[C@H](C)C/C=C/C(C)=C/[C@@H](C)C(=O)[C@@H](C)[C@H](O)[C@@H](C)C/C(C)=C/C(=O)O)/C=C/[C@@H]1OC(=O)C=C[C@@H]1C` [LMB, reptomycin B], the “inhibition of the nuclear export of the PLZF protein (ratio of cells expressing CFP-PLZF in the nucleus before and after TPA treatment)” value is recorded as “inhibited the nuclear export of the PLZF protein”.

The record behind these values is US7498127B2, “Method of screening cell growth inhibitor and cell growth inhibitor” (priority 2002, dated 2009).
